Legend:
[1] = system: HCT116 human colorectal carcinoma or A375 human malignant melanoma cells; assay: Cell proliferation assay (CellTiter-Glo); type: cell-based; conditions: in either one of the cell lines (HCT116, A375), 72 h
Procedure: Compounds are tested in a cell proliferation assay using the following cell lines:
HCT116 human colbrectal carcinoma (ATCC)
(§1) A375 human malignant melanoma (ATCC)
Both cell lines are maintained in DMEMIF12 (1:1) media (Gibco) supplemented with 10% FCS at 37° C. in a 5% CO2 humidified incubator.
Cells are seeded in 96-well plates at 2,000 cells/well and after 24 hours they are exposed to different concentrations of compounds in 0.83% DMSO. Cells are grown for a further 72 h, and an equal volume of CellTiter-Glo reagent (Promega) is added to each well. This lyses the cells and generates a luminescent signal proportional to the amount of ATP released (and therefore proportional to the number of cells in the well) that can be detected using a multiwell luminometer.
The EC50 is defined as the concentration at which a given compound achieves 50% inhibition of control. EC50 values are calculated using the XLfit software package (version 2.0.5).

[2] = system: cellular p-ERK in HCT116 or A375 cells; assay: Phospho-ERK cell-based assay (ELISA); conditions: Homo sapiens; in either one of the cell lines (HCT116, A375); 2 h or 24 h
Procedure: Compounds are tested in a cell-based phospho-ERK ELISA using the following cell lines:
HCT116 human colorectal carcinoma (ATCC)
as §1
Both cell lines are maintained in DMEM/F12 (1:1) media (Gibco) supplemented with 10% FCS at 37° C. in a 5% CO2 humidified incubator.
Cells are seeded in 96-well plates at 2,000 cells/well and after 24 h they are exposed to different concentrations of compounds in 0.83% DMSO. Cells are grown for a further 2 h or 24 h, fixed with formaldehyde (2% final) and permeabilised with methanol. Following blocking with TBST-3% BSA, fixed cells are incubated with primary antibody (anti-phospho ERK from rabbit) over-night at 4° C. Cells are incubated with Propidium Iodide (DNA fluorescent dye) and detection of cellular p-ERK is performed using an anti-rabbit secondary antibody conjugated to the fluorescent Alexa Fluor 488 dye (Molecular probes). The fluorescence is analysed using the Acumen Explorer (lTP Labtech), a laser-scanning microplate cytometer, and the Alexa Fluor 488 signal is normalised to the PI signal (proportional to cell number).
The EC50 is defined as the concentration at which a given compound achieves a signal half way between the baseline and the maximum response. EC50 values are calculated using the XLfit software package (version 2.0.5).

Row | SMILES | EC50 [1] [µM] | EC50 [2] [µM]
1 | O=C(NOC[C@H](O)CO)c1sc2ccncc2c1Nc1ccc(I)cc1F [Example 5, 3-(2-Fluoro-4-iodo-phenylamino)-thieno[3,2-c]pyridine-2-carboxylic acid ((R)-2,3-dihydroxy-propoxy)-amide] | < 10 | < 10
2 | O=C(NOCCO)c1sc2ccncc2c1Nc1ccc(I)cc1F [Example 10, 3-(2-Fluoro-4-iodo-phenylamino)-thieno[3,2-c]pyridine-2-carboxylic acid (2-hydroxyethoxy)-amide] | < 10 | < 10
3 | O=C(NOCCO)c1sc2c(F)cncc2c1Nc1ccc(I)cc1F [Example 11, 7-Fluoro-3-(2-fluoro-4-iodo-phenylamino)-thieno[3,2-c]pyridine-2-carboxylic acid (2-hydroxy-ethoxy)-amide] |  | < 10
4 | CSc1ccc(Nc2c(C(=O)NOCCO)sc3ccncc23)c(F)c1 [Example 12, 3-(2-Fluoro-4-methylsulfanyl-phenylamino)-thieno[3,2-c]pyridine-2-carboxylic acid (2-hydroxy-ethoxy)-amide] |  | < 10
